This note sets out measurements from patent US20230026856A1, “HETEROCYCLIC COMPOUNDS AND METHODS OF USE THEREOF” (SPARCBIO LLC, priority 2020, published 2023).

A value given as a limit tells only on which side of the number the result lay.

The assay deals with KRAS G12C protein (Homo sapiens, UniProt P01116, G12C). The assay can be described thus: Nucleotide exchange assay, Method III (TR-FRET, association of KRAS G12C with Raf-RBD, SOS1-mediated exchange). Particulars: overnight (18 hr) incubation with GDP-bound KRAS G12C. The class given is biochemical. As for the experimental part:
Method III. Inhibition of SOS1-mediated exchange of GDP for GTP on the KRAS G12C protein was measured in a biochemical assay that monitors association of KRAS G12C protein with the Ras-binding domain of Raf (Raf-RBD), where the association is coupled to exchange of GDP to GTP on the KRAS G12C protein. The assay was performed at WuXi AppTec (Shanghai, China). Compounds were serially diluted in 3-fold dilutions to 11 concentrations and spotted into the wells of an assay plate in a total volume of 150 nL DMSO per well. A 2× enzyme mix was prepared by diluting GDP-bound, His-tagged KRAS G12C to 25 nM in assay buffer. 10 μL/well of 2× enzyme mix was added to all wells, and the plate was sealed and incubated overnight (18 hr) at 23° C. 4×SOS1/GDP and 4×SOS1/GTP were prepared in assay buffer. 5 μL/well of 4×SOS1/GDP mix was added to negative control wells, 5 μL/well of 4×SOS1/GTP mix was added to the remaining wells, and the plate was further incubated at 23° C. for 1 hr. Finally, FLAG-tagged Raf-RBD is added to the reaction mixture along with a pair of FRET donor- and acceptor-conjugated antibodies specific for the FLAG-tagged Raf-RBD and His-tagged KRAS G12C proteins. A 4× Raf-RBD/Tb-anti-FLAG/D2-anti-His mix was prepared in assay buffer, and 5 μL/well of the mix was added to all wells, followed by incubation at room temperature for 2 hr. The TR-FRET signals, which increase with association of KRAS G12C and Raf-RBD, were measured on a Perkin Elmer Envision 2104 plate reader, and data were analyzed by non-linear regression to obtain IC50 values for inhibition by compounds. Table 2 includes results of the assay of Method III. ‘+++’ indicates IC50 values ≤300 nM, ‘++’ indicates IC50 values between 300 nM-3 μM, and ‘+’ indicates IC50 values ≥3 μM.

Sequence of KRAS G12C protein (P01116 1-188 isoform P01116-2 G12C): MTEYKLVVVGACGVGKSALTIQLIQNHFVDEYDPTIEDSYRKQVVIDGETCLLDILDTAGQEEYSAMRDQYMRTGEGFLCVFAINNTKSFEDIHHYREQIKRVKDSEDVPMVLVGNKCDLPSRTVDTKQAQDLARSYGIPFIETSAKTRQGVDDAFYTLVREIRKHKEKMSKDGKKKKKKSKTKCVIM

Usually IC50 stands for the point on the concentration scale where inhibition reaches its midpoint. A higher IC50 goes with weaker potency in that assay. `C=CC(=O)N1CCC(n2c(=O)c(=O)n(-c3c(C)ccnc3C(C)C)c3nc(-c4c(O)cccc4F)c(F)cc32)C[C@H]1C` (single isomer, unassigned) [2 (Isomer A)] returned an IC50 of no less than 3 µM. Take `C=CC(=O)N1CCC(n2c(=O)c(=O)n(-c3c(C)ccnc3C(C)C)c3nc(-c4c(O)cccc4F)c(F)cc32)C[C@@H]1C` (single isomer, unassigned) [4 (Isomer B)]: the half-maximal inhibitory concentration (IC50) was no less than 3 µM. Next, `C=CC(=O)N1CCC(c2c(C(=O)NC)c(=O)n(-c3c(C)ccnc3C(C)C)c3nc(-c4c(O)cccc4F)c(F)cc23)CC1` (single isomer, unassigned) [68 (Isomer A), 4-(1-acryloylpiperidin-4-yl)-6-fluoro-7-(2-fluoro-6-hydroxyphenyl)-1-(2-isopropyl-4-methylpyridin-3-yl)-N-methyl-2-oxo-1,2-dihydro-1,8-naphthyridine-3-carboxamide]: 0.3 to 3 µM.

For `C=CC(=O)N1CCC(c2c(C(=O)NC)c(=O)n(-c3c(C)ccnc3C(C)C)c3nc(-c4c(O)cccc4F)c(F)cc23)CC1` (single isomer, unassigned) [68 (Isomer B), 4-(1-acryloylpiperidin-4-yl)-6-fluoro-7-(2-fluoro-6-hydroxyphenyl)-1-(2-isopropyl-4-methylpyridin-3-yl)-N-methyl-2-oxo-1,2-dihydro-1,8-naphthyridine-3-carboxamide], the IC50 was no less than 3 µM. Compound `C=CC(=O)N1CCN(c2c(C(=O)NC)c(=O)n(-c3c(C)ccnc3C(C)C)c3nc(-c4c(O)cccc4F)c(F)cc23)[C@@H](C)C1` (single isomer, unassigned) [76 (Isomer B)] registered a half-maximal inhibitory concentration (IC50) of no less than 3 µM. The compound `C=CC(=O)N1CCN(c2c(C(=O)NC)c(=O)n(-c3c(C)ccnc3C(C)C)c3nc(-c4c(O)cccc4F)c(F)cc23)C[C@@H]1CC#N` (single isomer, unassigned) [80 (Isomer B)] yielded a half-maximal inhibitory concentration (IC50) of 0.3 to 3 µM. With `C=CC(=O)N1CCN(c2c(C(=O)NC)c(=O)n(-c3c(C)ccnc3C(C)C)c3nc(-c4c(C)ccc5[nH]ncc45)c(F)cc23)C[C@H]1C` (single isomer, unassigned) [114 (Isomer A)], the IC50 fell in the range of 0.3 to 3 µM. Turning to `C=CC(=O)N1CCN(c2c(C(=O)NC)c(=O)n(-c3c(C)ccnc3C(C)C)c3nc(-c4c(C)ccc5[nH]ncc45)c(F)cc23)C[C@H]1C` (single isomer, unassigned) [114 (Isomer B)], the IC50 was no more than 0.3 µM. `C=CC(=O)N1CCN(c2c(C(=O)NC)c(=O)n(-c3c(C)ccnc3C(C)C)c3nc(-c4c(C)ccc5[nH]ncc45)c(F)cc23)CC1` (single isomer, unassigned) [116 (Isomer B), 4-(4-acryloylpiperazin-1-yl)-6-fluoro-1-(2-isopropyl-4-methylpyridin-3-yl)-N-methyl-7-(5-methyl-1H-indazol-4-yl)-2-oxo-1,2-dihydro-1,8-naphthyridine-3-carboxamide]: the IC50 fell in the range of 0.3 to 3 µM.

With `C=CC(=O)N1CCN(c2c(S(C)(=O)=O)c(=O)n(-c3c(C)ccnc3C(C)C)c3nc(-c4c(O)cccc4F)c(F)cc23)CC1` (single isomer, unassigned) [123 (Isomer B), 4-(4-acryloylpiperazin-1-yl)-6-fluoro-7-(2-fluoro-6-hydroxyphenyl)-1-(2-isopropyl-4-methylpyridin-3-yl)-3-(methylsulfonyl)-1,8-naphthyridin-2(1H)-one], the IC50 is 0.3 to 3 µM. Consider `C=CC(=O)N1CCN(c2c(S(C)(=O)=O)c(=O)n(-c3c(C)ccnc3C(C)C)c3nc(-c4c(C)ccc5[nH]ncc45)c(F)cc23)CC1` (single isomer, unassigned) [124 (Isomer B), 4-(4-acryloylpiperazin-1-yl)-6-fluoro-1-(2-isopropyl-4-methylpyridin-3-yl)-7-(5-methyl-1H-indazol-4-yl)-3-(methylsulfonyl)-1,8-naphthyridin-2(1H)-one], for which the IC50 was no less than 3 µM.

Take `C=CC(=O)N1CCN(c2c(S(C)(=O)=O)c(=O)n(-c3c(C)ccnc3C(C)C)c3nc(-c4c(O)cccc4F)c(F)cc23)[C@@H](C)C1` (single isomer, unassigned) [131 (Isomer B)]: the IC50 is no less than 3 µM.
